Measured values reported in patent publication US10538555B2, “Macrocyclic inhibitors of the PD-1/PD-L1 and CD80(B7-1)/PD-L1 protein/protein interactions” (BRISTOL-MYERS SQUIBB COMPANY, priority 2014, dated 2020).
*1 amine or outer side, *2 acyl side, *3 side chain or, on linkers, in order; H or OH if unused. Where a SMILES comes first, the peptide text is derived from it. Bridges are numbered along the chain shown (N, C = ends). [ ]: non-standard residue; d: D form. ξ: configuration not given here. Phe(3,4,5-F3) = N[C@@H](Cc1cc(F)c(F)c(F)c1)C(=O)O; d(cisHyp) = O=C(O)[C@H]1C[C@@H](O)CN1; Phe(2-F) = N[C@@H](Cc1ccccc1F)C(=O)O; Hyp = O=C(O)[C@@H]1C[C@@H](O)CN1; NMeF = CN[C@@H](Cc1ccccc1)C(=O)O; X1 = O=C([C@H]1COCCN1[*:1])[*:2]; NMeNle = CCCC[C@H](NC)C(=O)O; hSer = N[C@@H](CCO)C(=O)O; NMeA = CN[C@@H](C)C(=O)O; Orn = NCCC[C@H](N)C(=O)O; Dab = NCC[C@H](N)C(=O)O; Dap = NC[C@H](N)C(=O)O; ξC = NC(CS)C(=O)O

Target: T1, Human PD-L1/PD-1 (Homo sapiens, UniProt Q9NZQ7)
T1 construct: TVMV protease cleavage site (C); made in house; host or cells: HEK293T cells
T1 sequence (Q9NZQ7 with tags, fused parts or gaps): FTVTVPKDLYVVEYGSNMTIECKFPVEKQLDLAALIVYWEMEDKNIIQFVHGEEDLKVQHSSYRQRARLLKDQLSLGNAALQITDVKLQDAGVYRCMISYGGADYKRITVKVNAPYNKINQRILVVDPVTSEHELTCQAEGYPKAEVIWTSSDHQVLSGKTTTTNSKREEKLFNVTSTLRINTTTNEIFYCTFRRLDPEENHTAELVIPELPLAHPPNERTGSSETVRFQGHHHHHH
Assay: HTRF Human PD-L1/PD-1 binding assay (PD-1-Ig/PD-L1-His)
Conditions: PD-L1-His 10 nM, PD-1-Ig 20 nM; class symbol; read-out: HTRF Human PD-L1/PD-1 Binding Assay IC50 Range
Method in brief: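 Competition of macrocyclic peptides for PD-1/PD-L1 binding measured by HTRF in dPBS containing 0.1% BSA and 0.05% Tween-20. Compound and PD-L1-His (10 nM final) incubated 15 min before PD-1-Ig (20 nM final) and a further 15 min.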

`CCCC[C@H]1C(=O)N2C[C@H](O)C[C@@H]2C(=O)N[C@@H](CC(=O)O)C(=O)N[C@@H](C(C)C)C(=O)N(C)[C@@H](Cc2ccccc2)C(=O)N[C@@H](CCCN)C(=O)N2CCC[C@@H]2C(=O)N[C@@H](Cc2c[nH]c3ccccc23)C(=O)N[C@@H](Cc2ccc(O)cc2)C(=O)N[C@@H](CCOC)C(=O)N[C@H](C(=O)NCC(N)=O)CSCC(=O)N[C@@H](Cc2cc(F)c(F)c(F)c2)C(=O)N(C)[C@@H](Cc2ccccc2)C(=O)N1C` [Example 10191] ({CH2CO}-[Phe(3,4,5-F3)][NMeF][NMeNle][d(cisHyp)]DV[NMeF][Orn][dP]WY[hSer](Me)CG-NH2; thioether N-13) was tested, and the IC50 was 1 to 9.9 nM.
For `CCCC[C@H]1C(=O)N2CCOC[C@@H]2C(=O)N[C@@H](CC(=O)O)C(=O)N[C@@H](C(C)C)C(=O)N(C)[C@@H](Cc2ccccc2)C(=O)N[C@@H](CCC(=O)O)C(=O)N2CCC[C@@H]2C(=O)N[C@@H](Cc2c[nH]c3ccccc23)C(=O)N[C@@H](Cc2ccc(O)cc2)C(=O)N[C@@H](CCOC)C(=O)N[C@H](C(=O)NCC(N)=O)CSCC(=O)N[C@@H](Cc2cc(F)c(F)c(F)c2)C(=O)N(C)[C@@H](Cc2ccccc2)C(=O)N1C` [Example 10192] ({CH2CO}-[Phe(3,4,5-F3)][NMeF][NMeNle][X1]DV[NMeF]E[dP]WY[hSer](Me)CG-NH2; thioether N-13), the IC50 was 10 to 99.9 nM.
`CCCC[C@H]1C(=O)N2C[C@H](O)C[C@@H]2C(=O)N[C@@H](CC(=O)O)C(=O)N[C@@H](C(C)C)C(=O)N(C)[C@@H](Cc2ccccc2)C(=O)N[C@@H](CCC(=O)O)C(=O)N2CCC[C@@H]2C(=O)N[C@@H](Cc2c[nH]c3ccccc23)C(=O)N[C@@H](Cc2ccc(O)cc2)C(=O)N[C@@H](CCOC)C(=O)N[C@H](C(=O)NCC(N)=O)CSCC(=O)N[C@@H](Cc2cc(F)c(F)c(F)c2)C(=O)N(C)[C@@H](Cc2ccccc2)C(=O)N1C` [Example 10193] ({CH2CO}-[Phe(3,4,5-F3)][NMeF][NMeNle][d(cisHyp)]DV[NMeF]E[dP]WY[hSer](Me)CG-NH2; thioether N-13) gave an IC50 of 1 to 9.9 nM.
With `CCCC[C@H]1C(=O)N2C[C@H](O)C[C@@H]2C(=O)N[C@@H](CC(=O)O)C(=O)N[C@@H](C(C)C)C(=O)N(C)[C@@H](Cc2ccccc2)C(=O)N[C@@H](CCOC)C(=O)N2CCOC[C@@H]2C(=O)N[C@@H](Cc2c[nH]c3ccccc23)C(=O)N[C@@H](Cc2ccc(O)cc2)C(=O)N[C@@H](CC(C)C)C(=O)N[C@H](C(=O)NCC(N)=O)CSCC(=O)N[C@@H](Cc2cc(F)c(F)c(F)c2)C(=O)N(C)[C@@H](Cc2ccccc2)C(=O)N1C` [Example 10194] ({CH2CO}-[Phe(3,4,5-F3)][NMeF][NMeNle][d(cisHyp)]DV[NMeF][hSer](Me)[X1]WYLCG-NH2; thioether N-13) the IC50 was 10 to 99.9 nM.
Work on `CCCC[C@H]1C(=O)N2C[C@H](O)C[C@@H]2C(=O)N[C@@H](CC(=O)O)C(=O)N[C@@H](C(C)C)C(=O)N(C)[C@@H](Cc2ccccc2)C(=O)N[C@@H](Cc2ccc(O)cc2)C(=O)N2CCOC[C@@H]2C(=O)N[C@@H](Cc2c[nH]c3ccccc23)C(=O)N[C@@H](Cc2ccccc2F)C(=O)N[C@@H](CC(C)C)C(=O)N[C@H](C(=O)NCC(N)=O)CSCC(=O)N[C@@H](Cc2cc(F)c(F)c(F)c2)C(=O)N(C)[C@@H](Cc2ccccc2)C(=O)N1C` [Example 10195] ({CH2CO}-[Phe(3,4,5-F3)][NMeF][NMeNle][d(cisHyp)]DV[NMeF]Y[X1]W[Phe(2-F)]LCG-NH2; thioether N-13) yielded an IC50 of 1 to 9.9 nM.
For `CCCC[C@H]1C(=O)N[C@@H](CC(N)=O)C(=O)N2CCC[C@H]2CN[C@@H](CO)C(=O)N[C@@H](CCO)C(=O)N2CCC[C@H]2C(=O)N[C@@H](Cc2c[nH]c3ccccc23)C(=O)N[C@@H](CN)C(=O)N[C@@H](Cc2c[nH]c3ccccc23)C(=O)N(C)[C@@H](C)C(=O)N(C)[C@@H](C)C(=O)N[C@@H](CCCNC(=N)N)C(=O)NC(C(=O)NCC(N)=O)CSCC(=O)N[C@@H](Cc2ccc(O)cc2)C(=O)N1C` (stereo partly drawn) [Example 10196], the IC50 was 1000 to 10000 nM.
With `CCCC[C@H]1C(=O)N[C@@H](CC(N)=O)C(=O)N2CCC[C@H]2CN[C@@H](CO)C(=O)N[C@@H](CCO)C(=O)N2CCC[C@H]2C(=O)N[C@@H](Cc2c[nH]c3ccccc23)C(=O)N[C@@H](CCN)C(=O)N[C@@H](Cc2c[nH]c3ccccc23)C(=O)N(C)[C@@H](C)C(=O)N(C)[C@@H](C)C(=O)N[C@@H](CCCNC(=N)N)C(=O)NC(C(=O)NCC(N)=O)CSCC(=O)N[C@@H](Cc2ccc(O)cc2)C(=O)N1C` (stereo partly drawn) [Example 10197] the IC50 was 1000 to 10000 nM.
Compound `CCCC[C@H]1C(=O)N[C@@H](CC(N)=O)C(=O)N2CCC[C@H]2C(=O)N[C@@H](CO)C(=O)N[C@@H](CCO)C(=O)N2CCC[C@H]2C(=O)N[C@@H](Cc2c[nH]c3ccccc23)C(=O)N[C@@H](CCCN)C(=O)N[C@@H](Cc2c[nH]c3ccccc23)C(=O)N(C)[C@@H](C)C(=O)N(C)[C@@H](C)C(=O)N[C@@H](CCCNC(=N)N)C(=O)NC(C(=O)NCC(N)=O)CSCC(=O)N[C@@H](Cc2ccc(O)cc2)C(=O)N1C` (stereo partly drawn) [Example 10198] ({CH2CO}-Y[NMeNle]NPS[hSer]PW[Orn]W[NMeA][NMeA]R[ξC]G-NH2; thioether N-14) has an IC50 of 1000 to 10000 nM.
`CCCC[C@H]1C(=O)N[C@@H](CC(N)=O)C(=O)N2CCC[C@H]2C(=O)N[C@@H](CO)C(=O)N[C@@H](CCO)C(=O)N2C[C@H](O)C[C@H]2C(=O)N[C@@H](Cc2c[nH]c3ccccc23)C(=O)N[C@@H](CN)C(=O)N[C@@H](Cc2c[nH]c3ccccc23)C(=O)N(C)[C@@H](C)C(=O)N(C)[C@@H](C)C(=O)N[C@@H](CCCNC(=N)N)C(=O)NC(C(=O)NCC(N)=O)CSCC(=O)N[C@@H](Cc2ccc(O)cc2)C(=O)N1C` (stereo partly drawn) [Example 10199] ({CH2CO}-Y[NMeNle]NPS[hSer][Hyp]W[Dap]W[NMeA][NMeA]R[ξC]G-NH2; thioether N-14) showed an IC50 of 1000 to 10000 nM.
`CCCC[C@H]1C(=O)N[C@@H](CC(N)=O)C(=O)N2CCC[C@H]2C(=O)N[C@@H](CO)C(=O)N[C@@H](CCO)C(=O)N2C[C@H](O)C[C@H]2C(=O)N[C@@H](Cc2c[nH]c3ccccc23)C(=O)N[C@@H](CCN)C(=O)N[C@@H](Cc2c[nH]c3ccccc23)C(=O)N(C)[C@@H](C)C(=O)N(C)[C@@H](C)C(=O)N[C@@H](CCCNC(=N)N)C(=O)NC(C(=O)NCC(N)=O)CSCC(=O)N[C@@H](Cc2ccc(O)cc2)C(=O)N1C` (stereo partly drawn) [Example 10200] ({CH2CO}-Y[NMeNle]NPS[hSer][Hyp]W[Dab]W[NMeA][NMeA]R[ξC]G-NH2; thioether N-14) was tested, and the IC50 was 1000 to 10000 nM.
For `CCCC[C@H]1C(=O)N[C@@H](CC(N)=O)C(=O)N2CCC[C@H]2C(=O)N[C@@H](CO)C(=O)N[C@@H](CCO)C(=O)N2C[C@H](O)C[C@H]2C(=O)N[C@@H](Cc2c[nH]c3ccccc23)C(=O)N[C@@H](CCCN)C(=O)N[C@@H](Cc2c[nH]c3ccccc23)C(=O)N(C)[C@@H](C)C(=O)N(C)[C@@H](C)C(=O)N[C@@H](CCCNC(=N)N)C(=O)NC(C(=O)NCC(N)=O)CSCC(=O)N[C@@H](Cc2ccc(O)cc2)C(=O)N1C` (stereo partly drawn) [Example 10201] ({CH2CO}-Y[NMeNle]NPS[hSer][Hyp]W[Orn]W[NMeA][NMeA]R[ξC]G-NH2; thioether N-14), the IC50 was 1000 to 10000 nM.
`CCCC[C@H]1C(=O)N[C@@H](CC(N)=O)C(=O)N2CCC[C@H]2C(=O)N[C@@H](CO)C(=O)N[C@@H](CCO)C(=O)N2CCC[C@H]2C(=O)N[C@@H](Cc2c[nH]c3ccccc23)C(=O)N[C@@H](CN)C(=O)N[C@@H](Cc2c[nH]c3ccccc23)C(=O)N(C)[C@@H](C)C(=O)N(C)[C@@H](C)C(=O)N[C@@H](CCCNC(=N)N)C(=O)NC(C(=O)NCC(N)=O)CSCC(=O)N[C@@H](Cc2ccc(O)cc2)C(=O)N1C` (stereo partly drawn) [Example 10202] ({CH2CO}-Y[NMeNle]NPS[hSer]PW[Dap]W[NMeA][NMeA]R[ξC]G-NH2; thioether N-14) showed an IC50 of 1000 to 10000 nM.
